Measured values taken from patent publication US20150094264A1, “USE OF OBESTATIN FOR MUSCLE REGENERATION” (UNIVERSIDADE DE SANTIAGO DE COMPOSTELA, priority 2012, published 2015).

How the values were obtained:
[1] = system: skeletal muscle tissue (gastrocnemius and soleus) in male rats; assay: Chronic administration by osmotic mini-pumps: myogenic markers in gastrocnemius and soleus of rat, immunoblot; assay type: in vivo, Sprague-Dawley rats; details: 300 nmol/kg body weight/24 h s.c. infusion, 72 h
Procedure: FIG. 7. Effect of the chronic administration of obestatin on the myogenic markers in the gastrocnemius and soleus of rat (animal model). Effect of the administration during 72 hours of obestatin (300 nmol/kg/24 h; 72 h) by the implantation of mini-pumps on early and later markers of myogenesis in skeletal muscle tissue (gastrocnemius and soleus) in male rats. A: Western-blot analysis. First column: control; second column: treatment with obestatin. B: Protein levels in gastrocnemius. White column: control; grey column: treatment with obestatin. The protein levels are expressed as % of the control obtained from the group of animals with implantation of mini-pumps with saline (n=10 per group; mean±standard error; *, p<0.05). C: Protein levels in soleus. White column: control; grey column: treatment with obestatin. The protein levels are expressed as % of the control obtained from the group of animals with implantation of mini-pumps with saline (n=10 per group; mean±standard error; *, p<0.05).
(§1) The tissue or cell samples were directly lysed in RIPA buffer [Tris-HCl (pH 7.2), 50 mM; NaCl, 150 mM; EDTA, 1 mM; NP-40, 1% (v/v); Sodium deoxycholate, 0.25% (w/v); protease inhibitors (Sigma); phosphatise inhibitors (Sigma)]. The lysates were clarified by centrifugation (14,000×g during 15 min at 4° C.) and the protein concentration was quantified using QuantiPro™ BCA assay kit (Sigma). For immunoblot, equal amounts of protein were loaded which were fractionated in SOS-PAGE gels and transferred to nitrocellulose membranes. The immunoreactive bands were detected by chemiluminescence (Pierce ECL Western Blotting Substrate; Thermo Scientific, Ill., USA).
Two animal models were used for the in vivo assays: Sprague-Dawley rats and Swiss mice. The Sprague-Dawley (250 g; n=20) rats were maintained in 12 h light-darkness cycled with free access to standard diet and water. The Alzet® mini-pumps (model 1003D) were subcutaneously implanted. The animals were assigned to one of the two experimental groups (n=10/group): 1) control group (mini-pumps with saline); and, 2) obestatin group (mini-pumps implanted containing 300 nmol/kg weight/24 h). These mini-pumps allow a diffusion flow of 1 microL/h. After 72 h, the rats were sacrificed by cervical dislocation under anaesthetic treatment, and soleus and gastrocnemius tissues were extracted for immunoblot analysis.
Based on the short mean life of obestatin in plasma, osmotic mini-pumps were used for the in vivo administration of this peptide. Two groups of male rats were worked with: a group of 10 male rats received the continuous subcutaneous infusion of obestatin during 72 h (300 nmol/kg body weight/24 h); and another group of 10 rats received the equivalent volume of PBS during 72 h. The animals were sacrificed and the gastrocnemius and soleus muscles were removed and processed to analyse the expression of key factors of muscular differentiation by immunoblot. […] The increase in both types of muscle of the family of regulatory factors of different stages in myogenesis show a clear muscle regenerative capacity for obestatin.

[2] = system: p38; assay: Activation of p38 [pp38(Y138)] by obestatin in L6E9 myoblasts, immunoblot; assay type: cell-based, rat
Procedure: (§2) FIG. 1. Activation of regulatory enzymes of mitogenesis and myogenesis by obestatin in L6E9 myoblasts and myotubes. Effect of obestatin on activity of regulatory enzymes of the mitogenic capacity (ERK 1/2), metabolic capacity (Akt and AMPK) and myogenic capacity (Akt and p38). Based on a dose-response study, the saturating dose for the maximum enzymatic activation is established for a concentration of 5 nM. […] Inactivation of AMPK is described in both cell models. The activation profile discovers bimodal characteristics for the action of obestatin: 1.—mitogenic activation in myoblasts; and, 2.—myogenic activation. The immunoblots are representative of 6 independent assays.
(§3) The studies were performed based on the use of L6E9 rat myoblasts which were maintained in growth medium (GM) formed by DMEM (Dulbecco's Modified Eagle Medium) supplemented with 10% fetal bovine serum (FBS), 100 U/mL penicillin, and 100 U/mL streptomycin. For the differentiation, the cells were cultured at 80-100% of confluence in GM and it was replaced for differentiation medium (DM) formed by DMEM supplemented with 2% FBS, 100 U/mL penicillin, and 100 U/mL streptomycin during 6 days.
as §1
(§4) To define the mitogenic and myogenic effect of obestatin, the activation capacity was studied of intracellular targets regulating proliferation (ERK1/2) and/or differentiation (p38 and Akt). […]

[3] = system: damaged tibialis anterior of mouse; assay: Blood vessels (isolectin positive) per myofiber in damaged tibialis anterior of mouse; assay type: in vivo, Swiss mice; details: 300 nmol/kg/24 h; 10 days after induction of muscle damage
Procedure: FIG. 13. Quantification of the blood vessels per myofiber in the tibialis anterior 10 days after the induction of muscle damage and exogenous treatment of obestatin (300 nmol/kg/24 h) or vehicle (PBS). Quantification of the number of blood vessels (immunofluorescence: positivity to isolectin) per myofiber (mean±standard error; *, p<0.005) of sections of the tibialis anterior treated with obestatin (300 nmol/kg/24 h) or PBS (control) 10 days after inducing the damage.
For the tissue immunofluorescence analysis, frozen sections were obtained which were fixed using a buffered solution of PBS-paraformaldehyde during 15 min, washed, permeabilized and blocked with PBT during 30 min, and later incubated with the corresponding primary antibody (anti-eMHC, anti-laminin antibody) diluted in PBT (1:50) during 12 h at 4° C. After three washes with PBS, the tissue sections were incubated with secondary antibody in PBT (1:1000) during 45 min at 37° C. […] The digital images of the cell culture were acquired with a Leica TCS-SP2 confocal microscope.
The mice (30 g; n=50) were maintained in 12 h light-darkness cycled with free access to standard diet and water. To induce the muscle damage, the tibialis anterior muscle (TA) was extracted under anaesthesia and subjected to three cycles of damage due to cold contact applying along the length of the muscle a metal bar cooled in liquid nitrogen. […]

[4] = system: Akt; assay: Activation of Akt [pAkt(S473)] by obestatin in L6E9 myoblasts, immunoblot; assay type: cell-based, rat
Procedure: as §2, §3, §1, §4

Substance: obestatin
- MHC protein levels in relation to control rats ([1]; gastrocnemius and soleus): significantly increased
- Myf5 protein levels in relation to control rats ([1]; gastrocnemius and soleus): significantly increased
- Myf6 protein levels in relation to control rats ([1]; gastrocnemius and soleus): significantly increased
- MyoD protein levels in relation to control rats ([1]; gastrocnemius and soleus): significantly increased
- Pax-7 protein levels in relation to control rats ([1]; gastrocnemius and soleus): significantly increased
- myogenin protein levels in relation to control rats ([1]; gastrocnemius and soleus): significantly increased
- Six-1 protein levels in relation to control rats ([1]; gastrocnemius): no effect at all
- Six-1 protein levels in relation to control rats ([1]; soleus): significant increased
- obestatin concentration at which activation of p38 [pp38(Y138)] was observed [2]: 0.1 nM
- obestatin concentration at which pp38(Y138) phosphorylation levels reached saturable values ([2]; dose-response): 5 nM
- time post-stimulation of maximum pp38(Y138) levels ([2]; obestatin 5 nM): 10 min
- capillary density (isolectin-positive blood vessels per myofiber) in relation to vehicle (PBS) [3]: significant increase
- obestatin concentration at which activation of Akt [pAkt(S473)] was observed [4]: 0.1 nM
- obestatin concentration at which pAkt(S473) phosphorylation levels reached saturable values ([4]; dose-response): 5 nM
- time post-stimulation of maximum pAkt(S473) levels ([4]; obestatin 5 nM): 10 min
